Article PMC9421654, “Discovery of Substituted Di(pyridin-2-yl)-1,2,4-thiadiazol-5-amines as Novel Macrofilaricidal Compounds for the Treatment of Human Filarial Infections” (Journal of Medicinal Chemistry, 2022)
“And” between values parts separate entries of the source, which are not always exact repeats. Equal entries are not always repeated. Where two headings read alike, the source gives them in different places. Marks after values point to notes of the source that are not given here.

What was measured:
[1] = LogD measurement (octanol-water); type: physicochemical
Summary of the method: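 Human and rat liver microsomes (0.3 mg/mL) with 1 mM NADPH and 3µM substrate, 30 minutes at 37 °C in pH 7.4 phosphate/MgCl2, triplicate; LC-MS/MS percentage remaining. LogD: octanol/aqueous buffer (pH 7.4, 2.2, 6.8, 5), 24 h shaking at room temperature. Kinetic solubility: 200 µM, 2% DMSO, 24 h, filtered.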

[2] = Liver S9 metabolic stability assay, rat; type: in vitro ADME; settings: 3 μM, 60 min
Summary of the method: (§1)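 Rat and human liver S9 (0.75 and 1.2 mg/ml) with 1 mM NADPH, 0.5 mM UDPGA, 2.5 mM GSH, 0.05 mg/ml PAPS, 3µM substrate, 60 min at 37 °C in Tris/MgCl2 pH 7.4. Mouse microsomes 0.3 mg/mL, 1 mM NADPH, 3µM, 30 min, phosphate pH 7.4. LC-MS/MS, % remaining, triplicate.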

[3] = Liver S9 metabolic stability assay, human; type: in vitro ADME; settings: 3 μM, 60 min
Summary of the method: as §1

[4] = Mouse pharmacokinetics; type: in vivo; settings: for Kp: brain and plasma
Description: All animal experiments were approved by the Institutional Animal Care and Use Committee (IACUC) of Bristol Myers Squibb.

[5] = target: T1, hERG potassium channels (KCNH2, expressed in HEK293 cells) (Homo sapiens, UniProt Q12809); assay: hERG inhibition; type: cell-based
T1 construct: expressed in transfected cells

[6] = test system: L. sigmodontis adult worms
[7] = test system: O. volvulus L5 larvae; assay: O. volvulus L5 ex vivo assay, motility; type: cell-based; settings: Onchocerca volvulus, 504 h, read-out: O. volvulus L5 % inhibition of motility
Protocol: O. volvulus larvae (L4) were prepared using cryopreserved O. volvulus L3 cultured in a medium containing 1:1 NCTC-109 and IMDM (Iscove’s modified Dulbecco’s medium) supplemented with Glutamax (1×) and 2× Antibiotic-Antimycotic (Life Technologies). This culturing medium was then added in transwell 24-well plates containing human umbilical vein endothelial cell (HUVEC) monolayers, containing the L4 larvae. A week prior to conducting an assay, the cultured O. volvulus larvae (L5) were transferred into a Petri dish containing fresh medium. Aliquots of 8–10 worms were retrieved from the Petri dish and placed inside new transwells over newly seeded HUVEC monolayers in the medium described above. After the transfer of O. volvulus L5 to the plates, the test compounds were dissolved in DMSO, added to each well, and incubated at 37 °C in a 5% CO2. The media containing freshly prepared compounds were partially replaced every 2–3 days for 14 days. After 14 days, the media were completely replaced. The untreated control contains the media described above with a final concentration of 0.05% DMSO. The motility was measured every 2–3 days with the following scale: 100% motility, constant coiling movement; 75% motility, slower coiling; 50% motility, slow and intermittent movement; 25% motility, very slow movement or twitching; and 0% motility, no movement. The motility was measured visually by two operators. On day 28, the viability of O. volvulus L5 was measured by MTT. Following washout and incubation during 1 h in PBS under 5% CO2, worms were observed under an inverted microscope. Worms were considered dead if no staining or less than 50% within the worm was observed. Otherwise, if worms stained blue or more than 50% stained, then they are considered alive. All test treatments were performed in duplicates. Significance was determined using a t test.

[8] = test system: O. volvulus L5 larvae; assay: O. volvulus L5 ex vivo assay, MTT viability; type: cell-based, Onchocerca volvulus; settings: Day 21, 1 uM
Protocol: This culturing medium was then added in transwell 24-well plates containing human umbilical vein endothelial cell (HUVEC) monolayers, containing the L4 larvae. A week prior to conducting an assay, the cultured O. volvulus larvae (L5) were transferred into a Petri dish containing fresh medium. […] After the transfer of O. volvulus L5 to the plates, the test compounds were dissolved in DMSO, added to each well, and incubated at 37 °C in a 5% CO2. The media containing freshly prepared compounds were partially replaced every 2–3 days for 14 days. After 14 days, the media were completely replaced. The untreated control contains the media described above with a final concentration of 0.05% DMSO. […] The motility was measured visually by two operators. […] Following washout and incubation during 1 h in PBS under 5% CO2, worms were observed under an inverted microscope. Worms were considered dead if no staining or less than 50% within the worm was observed. Otherwise, if worms stained blue or more than 50% stained, then they are considered alive. All test treatments were performed in duplicates. Significance was determined using a t test.

[9] = target: T2, hERG (Homo sapiens, UniProt Q12809); assay: hERG inhibition; type: cell-based; settings: human
T2 construct: expressed in transfected cells

[10] = Plasma protein binding, rat; type: in vitro ADME; settings: read-out: Plasma Protein Binding %, r (converted)
[11] = supplement, read-out: measured logD
[12] = male CD-1 mouse, PO 30 mg/kg suspension
[13] = male CD-1 mouse, PO 10 mg/kg suspension

T1 sequence (Q12809 whole entry): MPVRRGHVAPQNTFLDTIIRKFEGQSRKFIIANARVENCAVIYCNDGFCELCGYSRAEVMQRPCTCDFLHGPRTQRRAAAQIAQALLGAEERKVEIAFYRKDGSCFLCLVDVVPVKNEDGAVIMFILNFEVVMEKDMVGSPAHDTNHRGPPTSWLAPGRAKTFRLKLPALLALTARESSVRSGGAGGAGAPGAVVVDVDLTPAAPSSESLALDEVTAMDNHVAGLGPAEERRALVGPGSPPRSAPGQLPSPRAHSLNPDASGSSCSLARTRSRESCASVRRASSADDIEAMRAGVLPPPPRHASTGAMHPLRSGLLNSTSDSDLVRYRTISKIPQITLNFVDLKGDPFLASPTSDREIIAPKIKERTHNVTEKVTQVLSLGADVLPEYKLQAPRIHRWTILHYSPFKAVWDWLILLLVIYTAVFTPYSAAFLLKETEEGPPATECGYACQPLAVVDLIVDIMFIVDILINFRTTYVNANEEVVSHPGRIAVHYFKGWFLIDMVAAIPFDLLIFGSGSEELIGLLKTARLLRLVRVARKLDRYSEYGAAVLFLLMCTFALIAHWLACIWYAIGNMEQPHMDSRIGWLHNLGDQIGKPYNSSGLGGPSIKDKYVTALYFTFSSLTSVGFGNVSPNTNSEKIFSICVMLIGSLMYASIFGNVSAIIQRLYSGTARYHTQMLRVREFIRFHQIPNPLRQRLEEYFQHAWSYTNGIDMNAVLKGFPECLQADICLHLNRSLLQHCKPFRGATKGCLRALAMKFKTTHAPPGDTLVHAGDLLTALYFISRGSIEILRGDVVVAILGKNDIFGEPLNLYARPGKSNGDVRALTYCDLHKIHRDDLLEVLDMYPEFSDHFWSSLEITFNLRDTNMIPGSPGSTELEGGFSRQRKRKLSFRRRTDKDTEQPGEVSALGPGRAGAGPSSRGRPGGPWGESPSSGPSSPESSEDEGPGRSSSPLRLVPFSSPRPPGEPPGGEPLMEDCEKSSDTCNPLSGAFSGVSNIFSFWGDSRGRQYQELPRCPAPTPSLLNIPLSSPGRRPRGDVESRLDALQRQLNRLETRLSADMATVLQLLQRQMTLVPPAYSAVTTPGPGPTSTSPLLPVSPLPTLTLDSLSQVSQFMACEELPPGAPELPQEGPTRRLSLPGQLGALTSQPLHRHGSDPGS
T2 sequence (Q12809 whole entry): as above

Row | SMILES | logD at 24 h ([1]; pH 7.4, read-out: logD) | logD at 24 h [1, 11] | Rat S9 metabolic stability [2] | Human S9 metabolic stability [3] | AUC(0-inf) [4, 12] | Cmax [4, 12] | Tmax [4, 12] | IC50 ([5]; supplement) | O. volvulus L5 % inhibition of viability [8] | also measured
1 | Cc1cccnc1Nc1nc(-c2ccc(OC(C)C)cn2)ns1 [Compound 10, 3-(5-Isopropoxypyridin-2-yl)-N-(3-methylpyridin-2-yl)-1,2,4-thiadiazol-5-amine] | 2.88 | 2.88 | 100 % remaining | 100 % remaining | 26.0 ± 9.0 µM·h | 8260 ± 2600 nM | 1.0 ± 0.6 h | > 30 µM | – | tolerability in mice ([6]; reason for lowering the dose from 30 to 10 mg/kg): tolerability issues
2 | Cc1cccnc1Nc1nc(-c2ccc(OC3CC3)cn2)ns1 [Compound 11, 3-(5-Cyclopropoxypyridin-2-yl)-N-(3-methylpyridin-2-yl)-1,2,4-thiadiazol-5-amine] | 3.4 | 3.4 | 61 % remaining | 76 % remaining | – | – | – | > 30 µM | 100% | inhibition at 1 µM [7]: 100%
3 | Cc1cccnc1Nc1nc(-c2ccc(OC3CC4(C3)CN(C3CC3)C4)cn2)ns1 [Compound 12, 3-[5-[(2-Cyclopropyl-2-azaspiro[3.3]heptan-6-yl)oxy]-2-pyridyl]-N-(3-methyl-2-pyridyl)-1,2,4-thiadiazol-5-mine] | 2.1 | 2.1 | 53 % remaining | 58 % remaining | – | – | – | 0.2 µM | – | IC50 [5]: 0.203 µM
4 | Cc1cccnc1Nc1nc(-c2ccc(OC3CCN(C4CC4)CC3)cn2)ns1 [Compound 19, 3-[5-[(1-Cyclopropyl-4-piperidyl)oxy]-2-pyridyl]-N-(3-methyl-2-pyridyl)-1,2,4-thiadiazol-5-amine] | 3.3 | 3.3 | 76 % remaining | 83 % remaining | 6.23 ± 6.16 µM·h | 2080 ± 1220 nM | 0.5 ± 0.0 h | – | – | IC50 [5]: 3.46 µM
5 | CC(C)Oc1ccc(-c2nsc(Nc3ncccc3C(C)C)n2)nc1 [Compound 25, 3-(5-Isopropoxy-2-pyridyl)-N-(3-isopropyl-2-pyridyl)-1,2,4-thiadiazol-5-amine] | 2.85 | 2.85 | 82 % remaining | 99 % remaining | 20.0 ± 9.9 µM·h | 2050 ± 270 nM | 2.4 ± 3.8 h | – | – | –
6 | Cc1ccnc(-c2nsc(Nc3ncccc3C(F)(F)F)n2)c1 [Compound 26, 3-(4-Methylpyridin-2-yl)-N-(3-(trifluoromethyl)pyridin-2-yl)-1,2,4-thiadiazol-5-amine] | 2.45 | 2.45 | 61 % remaining | 56 % remaining | – | – | – | > 30 µM | – | –
7 | CC(C)c1ccnc(-c2nsc(Nc3ncccc3C(F)(F)F)n2)c1 [Compound 27] | 2.5 | 2.5 | 27 % remaining | 45 % remaining | – | – | – | – | – | inhibition at 1 µM [7]: 100%
8 | CNc1cccnc1Nc1nc(-c2ccc(OC(C)C)cn2)ns1 [Compound 30] | 2.9 | 2.9 | 73 % remaining | 86 % remaining | – | – | – | 16 µM | – | –
9 | CN(C)c1cccnc1Nc1nc(-c2ccc(OC3CC3)cn2)ns1 [Compound 32] | 2.5 | 2.5 | 91 % remaining | 100 % remaining | 3.85 ± 0.76 µM·h | 2340 ± 520 nM | 0.5 ± 0.00 h | – | 83% | inhibition at 1 µM [7]: 100%; reduction of adult worm burden ([6]; mice, 30 mg/kg BID, 7 days of dosing): 70%; adult worm burden reduction ([6]; naturally infected mice, 30 mg/kg BID 6d oral, figure prints reduction as negative value): -69.9%
10 | CC(C)c1ccnc(-c2nsc(Nc3cc(C(F)(F)F)ccn3)n2)c1 [Compound 35, 3-(4-Isopropylpyridin-2-yl)-N-(4-(trifluoromethyl)pyridin-2-yl)-1,2,4-thiadiazol-5-amine] | 3 | 3 | 45 % remaining | 65 % remaining | – | 210 ± 20 nM | 1.8 ± 1.7 h | – | – | AUC(0-inf) ([4]; male CD-1 mouse, PO 30 mg/kg suspension, 30 mg/kg): 1.7 µM·h and 1.73 ± 0.59 µM·h
11 | CC(=O)N(C)c1cccnc1Nc1nc(-c2ccc(OC(C)C)cn2)ns1 [Compound 47, N-(2-((3-(5-Isopropoxypyridin-2-yl)-1,2,4-thiadiazol-5-yl)amino)pyridin-3-yl)-N-methylacetamide] | 1.62 | 1.62 | – | – | 121 ^h μM·h | 13900 nM | 0.50 ^h | – | 100% | Kp ([4]; male CD-1 mouse, PO 30 mg/kg, based on AUC0-t, read-out: brain/plasma [b]/[p]): 0.08; Vd ([4]; in vivo, male CD-1 mouse, IV 2 mg/kg, read-out: Vdss): 0.74 ± 0.08 L/kg; Cl ([4]; male CD-1 mouse, IV 2 mg/kg): 3.6 ± 0.22 mL/min/kg; AUC(0-inf) [4, 13]: 68.1NC ^j μM·h; Cmax [4, 13]: 5270 ± 830 nM; Tmax ([4]; plasma, male CD-1 mouse, PO 10 mg/kg suspension, read-out: Tmax): 4 ± 2.8 h; bioavailability ([4]; plasma, male CD-1 mouse, PO 10 mg/kg vs IV 2 mg/kg): 57%; IC50 [9]: > 30 µM; inhibition at 1 µM ([7]; Day 21, 1 uM): 100%; fraction unbound [10]: 0.05
12 | CC(C)Oc1ccc(-c2nsc(Nc3ncccc3N(C)C(=O)C3CC3)n2)nc1 [Compound 50, N-(2-((3-(5-Isopropoxypyridin-2-yl)-1,2,4-thiadiazol-5-yl)amino)pyridin-3-yl)-N-methylcyclopropanecarboxamide] | 2.4 | 2.4 | – | – | – | – | – | – | 100% | Kp ([4]; male, CD-1, mouse, brain to plasma ratio, dose not given, read-out: [b]/[p]): 0.11; inhibition at 1 µM ([7]; Day 21, 1 uM): 100%
